The values that follow come from patent publication US9220262B2, “Use of acylcyclohexanedione carboxylic acid or salts thereof in combination with acylcyclohexanedione carboxylic acid esters for improving the development of gramineous plants” (BASF SE, priority 2008, dated 2015).

Holding throughout (type): in vivo
Test [1] concerns Winter wheat of the "Bussard" cultivar. The experiment in a line: Reduction of shoot growth in winter wheat, field test. As to the method: Winter wheat of the “Bussard” cultivar was cultivated under field conditions. To “provoke” significant lodging, the supply of the nutrient element nitrogen was deliberately selected too high. The remaining growing conditions corresponded to customary practice. The plants were treated with the inventive active ingredient combination at the BBCH 31/32 development stage (1- to 2-node stage) as a foliar application with a liquid volume of 200 I/ha. Prohexadione-Ca (“ProCa”) (50 g/ha) was used as Regalis (BASF) and trinexapac-ethyl (“TriEt”) (75 g/ha) as Moddus (Syngenta). The shoot length of the plants was measured at various times from the treatment until they were ready for harvest. The following results were obtained (data in centimeters): […]

Test [2] has as its system Wheat plants of the "Cubus" cultivar. The experiment in a line: Reduction of shoot growth in winter wheat, greenhouse test. As to the method:
Wheat plants of the “Cubus” cultivar were cultivated in pots of diameter 12 cm on a customary growing substrate. The plants were treated at BBCH development stage 11/12 (1-2 leaves unfolded) at a shoot length of 16 cm as a foliar application with a liquid volume of 750 I/ha. Both prohexadione-Ca (“ProCa”) and trinexapac-ethyl (“TriEt”) were used as technical grade active ingredients. To prepare an applicable spray liquor, the adjuvant LI-700 (Loveland Products, Inc., Greeley, Colo., USA) was added in a concentration of 0.1%. The shoot length of the plants was measured at different times after the treatment. The following results were obtained (data in centimeters): […]

Test [3] has as its system Winter wheat of the "Bussard" cultivar. As to the kind of experiment: Degree of stem lodging in winter wheat ready for harvest, field test. As to conditions: crops ready for harvest; for Degree of lodging: % lodged area x intensity (0-100) / 100. As to the method: Winter wheat of the “Bussard” cultivar was cultivated under field conditions. To “provoke” significant lodging, the supply of the nutrient element nitrogen was deliberately selected too high. The remaining growing conditions corresponded to customary practice. The plants were treated with the inventive active ingredient combination at the BBCH 31/32 development stage (1- to 2-node stage) as a foliar application with a liquid volume of 200 I/ha. Prohexadione-Ca (“ProCa”) (50 g/ha) was used as Regalis (BASF) and trinexapac-ethyl (“TriEt”) (75 g/ha) as Moddus (Syngenta). The shoot length of the plants was measured at various times from the treatment until they were ready for harvest. The following results were obtained (data in centimeters):
For crops ready for harvest from the test, the degree of stem lodging was determined. This value is the product of the percentage area in which the wheat plants are no longer upright with the intensity of lodging (0=plants are upright/100=plants lie flat on the ground) divided by 100. The values obtained here likewise lead to the conclusion of a synergistic interaction of the active ingredients involved: […]

[4] abbreviates: 25 g/ha foliar, 0 days after treatment.
Where [5] appears, read: 25 g/ha foliar, 5 days after treatment.
[6] abbreviates: 25 g/ha foliar, 8 days after treatment.
[7] abbreviates: 25 g/ha foliar, 11 days after treatment.
Setting [8] is: 50 g/ha foliar, 0 days after treatment.
Where [9] appears, read: 50 g/ha foliar, 5 days after treatment.
Where [10] appears, read: 50 g/ha foliar, 8 days after treatment.
[11] abbreviates: 50 g/ha foliar, 11 days after treatment.
The mark [12] stands for this setting: 100 g/ha foliar, 0 days after treatment.
Setting [13] is: 100 g/ha foliar, 5 days after treatment.
Setting [14] is: 100 g/ha foliar, 8 days after treatment.
The mark [15] stands for this setting: 100 g/ha foliar, 11 days after treatment.

For `CCC(=O)C1=C([O-])CC(C(=O)[O-])CC1=O.[Ca+2]` (stereo not drawn) [ProCa, prohexadione-Ca], the shoot length in test [1] (50 g/ha (as Regalis) foliar, 0 days after treatment) worked out at 43.0 cm; in test [1] (50 g/ha (as Regalis) foliar, 7 days after treatment), 50.0 cm; in test [1] (50 g/ha (as Regalis) foliar, 21 days after treatment), 69.3 cm; in test [1] (50 g/ha (as Regalis) foliar, 30 days after treatment) it was 89.0 cm; in test [1] (50 g/ha (as Regalis) foliar, 37 days after treatment), 99.5 cm; in test [1] (50 g/ha (as Regalis) foliar, 49 days after treatment) it was 119.8 cm. The shoot length in test [1] (50 g/ha (as Regalis) foliar, 63 days after treatment) is given as 120.0 cm; in test [2] (setting [4]), 16 cm; in test [2] (setting [5]) it was 23.0 cm; in test [2] (setting [6]), 26.6 cm; in test [2] (setting [7]), 31.1 cm; in test [2] (setting [8]), 16 cm. Besides, the shoot length in test [2] (setting [9]) was found to be 23.0 cm; in test [2] (setting [10]), 26.3 cm; in test [2] (setting [11]), 29.5 cm; in test [2] (setting [12]) it was 16 cm; in test [2] (setting [13]), 22.5 cm; in test [2] (setting [14]) it was 24.0 cm. The same molecule yielded a shoot length in test [2] (setting [15]) of 25.8 cm. The “Improvement over control [%] (degree of lodging)” value in test [3] (50 g/ha) is listed as 11%. Further, the “Improvement over control absolute (degree of lodging)” value in test [3] (50 g/ha) came to 10. Also, the Degree of lodging in test [3] (50 g/ha) is on record as 81.
Turning to `CCOC(=O)C1CC(=O)C(=C(O)C2CC2)C(=O)C1` (stereo not drawn) [TriEt, trinexapac-ethyl], the shoot length in test [1] (75 g/ha (as Moddus) foliar, 0 days after treatment) came to 43.0 cm; in test [1] (75 g/ha (as Moddus) foliar, 7 days after treatment), 54.5 cm; in test [1] (75 g/ha (as Moddus) foliar, 21 days after treatment), 76.3 cm; in test [1] (75 g/ha (as Moddus) foliar, 30 days after treatment) it was 97.8 cm; in test [1] (75 g/ha (as Moddus) foliar, 37 days after treatment), 102.8 cm; in test [1] (75 g/ha (as Moddus) foliar, 49 days after treatment), 119.8 cm. Besides, the shoot length in test [1] (75 g/ha (as Moddus) foliar, 63 days after treatment) is listed as 121.0 cm; in test [2] (setting [4]), 16 cm; in test [2] (setting [5]) it was 24.6 cm; in test [2] (setting [6]), 27.9 cm; in test [2] (setting [7]), 32.9 cm; in test [2] (setting [8]), 16 cm. Besides, the shoot length is 24.4 cm in test [2] (setting [9]); 26.5 cm in test [2] (setting [10]); 31.8 cm in test [2] (setting [11]); 16 cm in test [2] (setting [12]); 22.3 cm in test [2] (setting [13]); 23.6 cm in test [2] (setting [14]). For the same molecule, in test [2] (setting [15]), the shoot length is 28.5 cm. Further, the Degree of lodging in test [3] (75 g/ha) amounted to 93.
